Results on two compounds are retold here after patent US4177291A, “Compounds having antidepressive activity” (priority 1976, dated 1979).

Converted amounts (≈) assume the structure as drawn. Where two headings read alike, the source gives them in different places.

Assay [1] concerns uptake of 14C-5-HT. Briefly: Inhibition of uptake of 14C-5-HT in vitro (mouse midbrain slices). Type of assay: cell-based, mice. The note with it: 5 min, read-out: Inhibition (50%) of uptake in vitro 5-HT. How it is done:
(§1) The method is described by Ross, Renyi and Ogren in European Journal of Pharmacology 17 (1972), 107-112. Tricyclic antidepressant drugs of type imipramine added in vitro or given in vivo to mice decrease the uptake of ^14 C-5-HT and ^3 H-NA in vitro. In the in vitro experiments different concentrations of the test compound were added to the incubation medium. In the in vivo experiments different doses of the test drug were administered intraperitoneally half an hour before the animals were killed. The incubation performance was the same in the two types of experiments, i.e. the midbrain was taken out and sliced and incubated in a mixture consisting of, per 100 mg of brain slices, 0.2 n-mole of ^14 C-5-HT, 0.2 n-mole of ^3 H-NA and 11μ mole of glucose in 2 ml of Krebs-Henseleit buffer, pH 7.4. The incubation time was 5 minutes. The radioactive amines taken up in the slices were dissolved in Soluene-350® (Packard) and the amounts were determined with the double labelling technique by liquid scintillation. The concentration or dose producing 50 percent decrease of the active uptake (ED50) was determined graphically from dose response curves. Active uptake is defined as that part of the radioactive uptake which is inhibited by a high concentration of cocaine. All doses were given at least to four animals.

Assay [2] has as its system uptake of 3H-NA. As to the kind of experiment: Inhibition of uptake of 3H-noradrenaline in vitro (mouse midbrain slices). Type of assay: cell-based, mice. The note with it: 5 min, compound added to incubation medium, l-noradrenaline 1×10^-7 M, 5 min incubation, ED50 from dose response curves, read-out: Inhibition (50%) of uptake in vitro NA. How it is done:
as §1

Assay [3] concerns uptake of 14C-5-HT. As to the kind of experiment: Inhibition of uptake of 14C-5-HT in vivo (drug given i.p., uptake measured in midbrain slices). The note with it: Mus musculus, ip, 0.5 h, mice dosed i.p. half an hour before killing, 5-HT 1×10^-7 M, read-out: Inhibition (50%) of uptake in vivo 5-HT. The protocol:
as §1, with “Tricyclic antidepressant drugs of type imipramine added in vitro or given in vivo to mice decrease the uptake of ^14 C-5-HT and ^3 H-NA in vitro.” left out

In assay [4] the test system is uptake of 3H-NA. As to the kind of experiment: Inhibition of uptake of 3H-noradrenaline in vivo (drug given i.p., uptake measured in midbrain slices). As to conditions: Mus musculus, ip, 0.5 h, mice dosed i.p. half an hour before killing, l-noradrenaline 1×10^-7 M, read-out: Inhibition (50%) of uptake in vivo NA. The protocol:
as §1, with “Tricyclic antidepressant drugs of type imipramine added in vitro or given in vivo to mice decrease the uptake of ^14 C-5-HT and ^3 H-NA in vitro.” left out

Assay [5] concerns 5-HTP behavioural syndrome. Briefly: 5-HTP response potentiation test. Type of assay: in vivo, mice. The note with it: Mus musculus, read-out: Potentiation of 5-HTP effective dose. How it is done: Inhibition of the uptake of 5-HT potentiates the effects of administered 5-hydroxytryptophan (5-HTP) probably by increasing the amount of 5-HT at the receptor. Three mice are given the test drugs one hour (or 4, 24 hours) before dl-5-HTP 90 mg/kg i.v. 5-HTP alone gives only a weak behavioural syndrome but in pretreated mice there is seen a characteristic behavioural syndrome, which comes within five minutes: tremor, lordosis, abduction of the hindlegs, head-twiches. The strength of the syndrome is scored from 0 to +3. Each group consists of 3 animals and at least 4 groups were tested at 25 mg/kg i.p. Control groups receiving imipramine (Tofranil®) are used as reference, since imipramine constantly potentiated dl-5-HTP. The least dose of the test compound producing maximal score (+3) in all animals is estimated from a logarithmic dose-response curve, and is denoted "effective dose" in the following Table.

`CN(C)CCCN1c2ccccc2CCc2ccccc21` [Imipramine, imipramine]: the IC50 in the assay on uptake of 14C-5-HT [1] (Mus musculus) turned out to be 0.1 mg/L (≈ 0.357 µM); in the assay on uptake of 3H-NA [2], 0.06 mg/L (≈ 0.214 µM). Also, the ED50 in the assay on uptake of 14C-5-HT [3] is 24 mg/kg; in the assay with uptake of 3H-NA [4] it was 6 mg/kg. Further, in assay [5], the minimal effective dose was 15 mg/kg.

Take `CC(N)C(=O)CC(C)(C)Cc1ccc(Cl)cc1.Cl` (stereo not shown) [GEA 995, 2-amino-6-(4-chlorophenyl)-5,5-dimethyl-3-hexanone hydrochloride]: the IC50 is 0.6 mg/L with uptake of 14C-5-HT [1] (compound added to incubation medium, mouse midbrain slices, 5-HT 1×10^-7 M, 5 min incubation, ED50 from dose response curves) and > 10 mg/L in the assay with uptake of 3H-NA [2]. In addition, the ED50 in the assay with uptake of 14C-5-HT [3] is 20 mg/kg; in the assay on uptake of 3H-NA [4], > 40 mg/kg. Also, the minimal effective dose in assay [5] (mice, least dose producing maximal score (+3) in all animals, test drug given before dl-5-HTP 90 mg/kg i.v.) was 4 mg/kg.
